Assay results taken from PubChem BioAssay (NCI).
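At the GI50, growth is halved. The concentration for full growth arrest is given as TGI.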

What was measured:
Experiment in all cases: NCI tumour cell line growth inhibition, 384-well format
[1] = test system: NCI-H226 lung
[2] = test system: NCI-H23 lung
[3] = test system: NCI-H322M lung
[4] = test system: NCI-H460 NSCLC
[5] = test system: NCI-H522 lung
[6] = test system: NCI/ADR-RES ovarian
[7] = test system: OVCAR-3 ovarian
[8] = test system: OVCAR-4 ovarian
[9] = test system: OVCAR-8 ovarian
[10] = test system: PC-3 prostate
[11] = test system: RPMI-8226 leukemia
[12] = test system: RXF 393 renal
[13] = test system: SF-268 CNS
[14] = test system: SF-295 CNS
[15] = test system: SF-539 CNS
[16] = test system: SK-MEL-28 melanoma
[17] = test system: SK-MEL-5 melanoma
[18] = test system: SK-OV-3 ovarian
[19] = test system: SN12C renal
[20] = test system: SNB-19 CNS
[21] = test system: SNB-75 CNS
[22] = test system: SR leukemia
[23] = test system: SW-620 colon
[24] = test system: T-47D breast
[25] = test system: TK-10 renal
[26] = test system: U251 glioblastoma
[27] = test system: UACC-257 melanoma
[28] = test system: UACC-62 melanoma
[29] = test system: UO-31 renal

## Cc1nnc(C[C@@H]2C=C(c3ccc(Cl)cc3)c3ccccc3-n3c(C)nnc32)o1
[1]
  GI50: 0.294 µM
  TGI: 17.4 µM
[2]
  GI50: 0.545 µM
  TGI: 12.9 µM
[3]
  GI50: 0.492 µM
  TGI: 37.6 µM
[4]
  GI50: 1.34 µM
  TGI: 18.7 µM
[5]
  GI50: 0.25 µM
  TGI: 2.95 µM
[6]
  GI50: 1.49 µM
  TGI: 12.5 µM
[7]
  GI50: 0.379 µM
  TGI: 12.9 µM
[8]
  GI50: 0.447 µM
  TGI: 4.91 µM
[9]
  GI50: 0.246 µM
  TGI: 3.1 µM
[10]
  GI50: 0.996 µM
  TGI: 33.2 µM
[11]
  GI50: 0.059 µM
  TGI: 0.351 µM
[12]
  GI50: 2.6 µM
  TGI: 18.3 µM
[13]
  GI50: 3.22 µM
  TGI: 24 µM
[14]
  GI50: 4.52 µM
  TGI: 32.6 µM
[15]
  GI50: 1.65 µM
  TGI: 24.5 µM
[16]
  GI50: 0.987 µM
  TGI: 36.7 µM
[17]
  GI50: 0.695 µM
  TGI: 17.7 µM
[18]
  GI50: 0.393 µM
  TGI: 15.3 µM
[19]
  GI50: 12.5 µM
  TGI: 41.1 µM
[20]
  GI50: 2.55 µM
  TGI: 31.6 µM
[21]
  GI50: 0.965 µM
  TGI: > 100 µM
[22]
  GI50: 0.0585 µM
  TGI: 0.371 µM
[23]
  GI50: 10.4 µM
  TGI: 22.7 µM
[24]
  GI50: 4.96 µM
  TGI: 57.9 µM
[25]
  GI50: 0.29 µM
  TGI: 13.4 µM
[26]
  GI50: 3.89 µM
  TGI: 25 µM
[27]
  GI50: 7.05 µM
  TGI: 27.3 µM
[28]
  GI50: 0.076 µM
  TGI: 12.2 µM
[29]
  GI50: 0.676 µM
  TGI: > 100 µM
